In ChEMBL document CHEMBL1201862, “PubChem BioAssay data set” (2004):
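The compound was tested at five concentrations on cells cultured in 96-well plates, with a 48-hour exposure period. GI50: concentration for 50% inhibition of growth.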 Active and inactive are the calls of the source. No stated cut-off is given here; in the data, active = GI50 up to about 1.1 µM and inactive = higher.

Legend:
Assay in all cases: NCI anticancer screen, dose series, 48 h
[1] = tested on: HOP-62
[2] = tested on: A498
[3] = tested on: SK-MEL-2
[4] = tested on: M14
[5] = tested on: SF-268
[6] = tested on: HCT-116
[7] = tested on: HT-29
[8] = tested on: SNB-75
[9] = tested on: SF-295
[10] = tested on: RXF 393
[11] = tested on: SF-539
[12] = tested on: EKVX
[13] = tested on: SK-MEL-5
[14] = tested on: CCRF-CEM
[15] = tested on: CAKI-1
[16] = tested on: 786-0
[17] = tested on: COLO 205
[18] = tested on: NCI-H226

Measured: GI50

CCN(CC)c1ccc(C(=O)c2ccccc2C(=O)O)c(O)c1
inactive: [1] > 100 µM | [2] > 100 µM | [3] > 100 µM | [4] > 100 µM | [5] > 100 µM | [6] > 100 µM | [7] > 100 µM | [8] > 100 µM | [9] > 100 µM | [10] > 100 µM | [11] > 100 µM | [12] > 100 µM | [13] > 100 µM | [14] > 100 µM | [15] > 100 µM | [16] > 100 µM | [17] > 100 µM

S=C(Nc1ccccc1)N1N=C2c3ccccc3CC[C@H]2[C@@H]1c1ccccc1
inactive: [1] 4.22 µM | [2] 11.7 µM | [3] 2.35 µM | [4] 4.89 µM | [5] 12.9 µM | [6] > 100 µM | [7] 2.81 µM | [10] 2.12 µM | [11] 5.87 µM | [12] > 100 µM | [14] 2.91 µM | [16] 4.31 µM | [18] 4.23 µM

Cn1cc(NC(=O)c2cc(NC(=O)CCCCCCCCCC(=O)Nc3cc(C(=O)Nc4cc(C(=O)NCCC(=N)N)n(C)c4)n(C)c3)cn2C)cc1C(=O)NCCC(=N)N
inactive: [1] 24.5 µM | [3] 29.3 µM | [4] 23.1 µM | [5] 21.8 µM | [6] 24.5 µM | [7] 20.7 µM | [8] 27.9 µM | [9] 22.1 µM | [10] 32.1 µM | [11] 37.9 µM | [12] 28.6 µM | [13] 14.7 µM | [14] 22.6 µM | [15] 32 µM | [16] 29.4 µM | [18] > 100 µM | [17] 21.2 µM

Nc1nc(Cl)cc(NCCCCCCNc2cc(Cl)nc(N)n2)n1
inactive: [1] > 100 µM | [3] 87.9 µM | [4] > 100 µM | [6] 30.7 µM | [7] > 100 µM | [8] > 100 µM | [9] 28.1 µM | [10] > 100 µM | [11] > 100 µM | [12] > 100 µM | [13] 13.1 µM | [14] 59.6 µM | [15] 27.7 µM | [16] > 100 µM | [18] 25.8 µM | [17] > 100 µM

Cc1cc(NS(=O)(=O)c2ccc(NC(=O)c3cccc4c(Nc5ccc(S(=O)(=O)Nc6cc(C)on6)cc5)c5ccccc5nc34)cc2)no1
inactive: [1] 47.8 µM | [2] 68.9 µM | [3] 30.3 µM | [4] 72.6 µM | [5] 34.7 µM | [7] > 100 µM | [8] 22.3 µM | [9] > 100 µM | [10] 25.8 µM | [11] 27.4 µM | [12] > 100 µM | [13] 69.2 µM | [14] 35.6 µM | [15] 70.1 µM | [16] 33 µM | [17] 62.4 µM

Cc1cc2c(c3c1c1ccccc1n3C)C(=O)c1ccccc1C2=O
inactive: [1] > 100 µM | [3] > 100 µM | [4] > 100 µM | [5] > 100 µM | [6] > 100 µM | [7] > 100 µM | [8] > 100 µM | [9] > 100 µM | [10] > 100 µM | [11] > 100 µM | [12] > 100 µM | [13] > 100 µM | [14] > 100 µM | [16] > 100 µM | [17] > 100 µM

CC1=NN(C(=O)c2ccc(Cl)cc2)C(=O)/C1=C/c1ccco1
inactive: [1] > 100 µM | [2] > 100 µM | [3] > 100 µM | [4] > 100 µM | [5] > 100 µM | [6] > 100 µM | [7] > 100 µM | [9] > 100 µM | [10] > 100 µM | [11] > 100 µM | [12] > 100 µM | [13] > 100 µM | [14] > 100 µM | [15] > 100 µM | [16] > 100 µM | [17] > 100 µM

Cc1ccc(NC(=O)C2C(=O)C(=O)N(c3ccc(C)cc3)C2=O)cc1 (configuration not stated)
inactive: [1] 93.3 µM | [2] > 100 µM | [3] > 100 µM | [4] > 100 µM | [5] > 100 µM | [6] > 100 µM | [7] > 100 µM | [9] > 100 µM | [10] 72.1 µM | [11] > 100 µM | [12] > 100 µM | [13] > 100 µM | [14] > 100 µM | [16] > 100 µM | [17] > 100 µM

CC1C[C@H](OC(N)=O)C(C)CC1=O (some centres not stated)
inactive: [1] > 100 µM | [2] > 100 µM | [3] > 100 µM | [4] > 100 µM | [5] > 100 µM | [6] > 100 µM | [7] > 100 µM | [8] > 100 µM | [9] > 100 µM | [10] > 100 µM | [11] > 100 µM | [12] > 100 µM | [13] > 100 µM | [14] > 100 µM | [15] > 100 µM | [16] > 100 µM | [17] > 100 µM
